Experimental findings from patent US20260325542A1, “CANCER TARGETING COMPLEX, AND COMPOSITION COMPRISING SAME FOR PREVENTING OR TREATING CANCER” (EWHA UNIVERSITY - INDUSTRY COLLABORATION FOUNDATION, priority 2023, published 2026) are described below.

For data set [1], the system named is Bcl-2. As to the kind of experiment: Western blot of excised cancer tissue, Bcl-2. In kind it is in vivo, mouse. The procedure: (§1) The control group was administered saline (10 mg/kg) once every 3 days for 15 days through the tail vein (total 4 administrations). The comparison group was administered ARV-771 (10 mg/kg) once every 3 days for 15 days through the tail vein (total 4 administrations). The example group was administered ECMal-PROTAC 10 mg/kg (wquiv. to ARV-771) of example 1 once every 3 days for 15 days through the tail vein (total 4 administrations).
In general terms: Immunoblotting shows a protein as a band on a membrane.

Data set [2] in a line: Particle size by DLS before and after binding to albumin. It counts as physicochemical. The settings on record: before and after binding to BSA. On the procedure: A BSA solution (200 μM) diluted with PBS was co-incubated by mixing it with an ECMal-PROTAC aqueous solution (140 μM) of example 1 at a 1:1 volume ratio.
The test system of data set [3] is c-Myc. As to the kind of experiment: Western blot of excised cancer tissue, c-Myc. In kind it is in vivo, mouse. The procedure:
as §1

For data set [4], the system named is 4T1 tumor. As to the kind of experiment: In vivo anticancer efficacy, tumor size in 4T1 cancer animal model. Also on record: species or system mouse. On the procedure: (§2) 5-week-old female Balb/c and Balb/c nu/nu mice were purchased from NaraBio, Inc (Seoul, Republic of Korea). The mice underwent a 2-week acclimatization period before the example. The mice were raised under free-feeding conditions in a breeding room maintained at a temperature of 22±2° C. and humidity of 40-60% during the example. The light and dark cycle was regulated at 12-hour intervals. All examples were conducted in compliance with the relevant laws and institutional guidelines of the KIST Institutional Animal Care and Use Committee (IACUC; Approval No.: 2021-143).
Cancer animal models were prepared by inoculating 1×10^6 4T1 cells into the left thigh of the mice, and raising them until the tumor volume reached 50-80 mm^3.
For the preparation of the control group, the comparison group, and the example group, mice were randomly divided into groups of 5.
as §1
(§3) Tumor size and body weight were measured every two days for the control group, the comparison group, and the example group.

The nature of data set [5]: Body weight and systemic side effects. In kind it is in vivo, mouse. The settings on record: 10 mg/kg, i.v., once every 3 days for 15 days. The procedure: as §1, §3
Data set [6] concerns major organs and cancer tissue. As to the kind of experiment: Ex vivo biodistribution in major organs and cancer tissue. Details: species or system mouse. The conditions noted are these: 24 hours after i.v. 3 mg/kg. The procedure:
as §2
Cancer animal models were prepared by inoculating 1×10^6 4T1 cells into the left thigh of the mice, and raising them until the tumor volume reached 150-200 mm3.
Samples were prepared as follows to analyze the in vivo therapeutic effect of the complex for cancer targeting (ECMal-PROTAC) of example 1. A Cy5.5-BSA solution (Cy5.5-Alb, Preparation Example 1, 200 μM) diluted with PBS was co-incubated by mixing it with an ECMal-PROTAC aqueous solution (140 μM) of example 1 at a 1:1 volume ratio. […]
To analyze the sample distribution in the excised cancer tissue, the excised major organs and cancer tissue were imaged with the IVIS Lumina Series III system (PerkinElmer, Waltham, MA, USA) and analyzed with Living Image software (PerkinElmer).

The subject of data set [7] is 4T1 cells. Description: CCK-8 assay, toxicity on cancer cells. It counts as cell-based, mouse. The settings on record: CCK-8, 48 hours. The procedure:
The toxicity of ARV-771 and ECMal-PROTAC on cancer cells was analyzed by the CCK-8 (cell counting kit-8) assay. 4T1 cells were dispensed into a 96-well culture plate at 3×10^3 cells per well. They were cultured for 24 hours at 37° C. and 5% carbon dioxide atmosphere. The cells were treated with different concentrations of ARV-771 (0.01 to 100 μM), the complex for cancer targeting (ECMal-PROTAC) of example 1 (0.01 to 100 μM), and the complex for cancer targeting (Mal-PROTAC) of example 2 (0.01 to 100 μM) separately, and cultured for 48 hours. After exposing each well to 10% CCK-8-containing culture media for 30 minutes, the viability of 4T1 cells treated with ARV-771 or 4T1 cells treated with ECMal-PROTAC or Mal-PROTAC was analyzed with a microplate reader. The change in cell viability according to the concentration of ARV-771 or ECMal-PROTAC or Mal-PROTAC was calculated using GraphPad Prism 8 software (GraphPad Software, San Diego, CA, USA) by fitting the IC50 (haf-maximal inhibitory concentration) value.
On the technique in general: Tetrazolium dyes change colour on reduction, which living cells bring about.

The target in data set [8] is thiol-blocked BSA (Bos taurus, UniProt P02769). As to the kind of experiment: Selective binding: thiol-blocked BSA, RP-HPLC. Details: species or system bovine. The settings on record: thiol-blocked BSA 200 μM, ECMal-PROTAC 140 μM, up to 60 minutes. The procedure:
To confirm whether the binding of ECMal-PROTAC of example 1 and albumin is specific, thiol-blocked BSA was used. Specifically, thiol-blocked BSA was prepared by mixing 4-maleimidobutyric acid and BSA with a cyc34 blocking agent. The thiol-blocked BSA was diluted with PBS to prepare a solution (200 μM). This was co-incubated by mixing it with the ECMal-PROTAC aqueous solution (140 μM) of example 1 at a 1:1 volume ratio. The culture was collected at incubation times of 0 minutes, 5 minutes, 30 minutes, and 60 minutes. It was quenched with mercaptoethanol, and HPLC spectra for each sample were acquired through concentration gradient of the eluent (ACN/H2O, 20/80 to 80/20 (v/v), 30 minutes).
From the HPLC results for the BSA and complex for cancer targeting (ECMal-PROTAC) mixture in Experimental Example 1 and the thiol-blocked BSA and complex for cancer targeting (ECMal-PROTAC) mixture in Experimental Example 2, the reduction in the HPLC peak area associated with the complex for cancer targeting (ECMal-PROTAC) was quantified.

Where [9] appears, read: Western blot, vs ARV-771 group (so in the source).

Sequence of thiol-blocked BSA (P02769 25-607): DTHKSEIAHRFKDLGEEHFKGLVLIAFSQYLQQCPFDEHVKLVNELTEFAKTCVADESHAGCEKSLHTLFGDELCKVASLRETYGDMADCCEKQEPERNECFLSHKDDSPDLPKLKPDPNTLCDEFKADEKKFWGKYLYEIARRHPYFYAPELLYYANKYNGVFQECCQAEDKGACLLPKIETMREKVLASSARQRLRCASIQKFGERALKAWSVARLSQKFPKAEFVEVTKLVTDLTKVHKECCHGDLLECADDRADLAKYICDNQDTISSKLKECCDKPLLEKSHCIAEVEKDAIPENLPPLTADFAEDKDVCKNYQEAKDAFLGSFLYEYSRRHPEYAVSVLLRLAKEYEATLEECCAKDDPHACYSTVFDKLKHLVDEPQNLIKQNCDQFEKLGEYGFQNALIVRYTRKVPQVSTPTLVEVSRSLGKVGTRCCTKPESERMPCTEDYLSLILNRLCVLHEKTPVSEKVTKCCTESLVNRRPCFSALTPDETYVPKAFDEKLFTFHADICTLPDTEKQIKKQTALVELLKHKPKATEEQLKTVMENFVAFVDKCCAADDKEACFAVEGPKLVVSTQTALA

In general, IC50 refers to the concentration needed to halve the response being measured. With `Cc1ncsc1-c1ccc([C@H](C)NC(=O)[C@@H]2C[C@@H](OC(=O)CCCCn3nnc4c3CCC3C(CC4)C3COC(=O)NCCOCCOCCNC(=O)CCN3C(=O)C=CC3=O)CN2C(=O)[C@@H](NC(=O)COCCCOCCNC(=O)C[C@@H]2N=C(c3ccc(Cl)cc3)c3c(sc(C)c3C)-n3c(C)nnc32)C(C)(C)C)cc1` (stereo partly drawn) [ECMal-PROTAC], the “Bcl-2 level in cancer tissue vs control” value in data set [1] (Western blot, 10 mg/kg) is reported as “much lower levels”. For the same compound, the “Bcl-2 level in cancer tissue, example group vs comparison group” value in data set [1] (setting [9]) is “no significant difference”. In data set [1] (cancer tissue, FIG. 32), the “relative expression level of Bcl-2, fold lower than control group” value is given as 2.3 times. Moreover, in data set [2], the “change in particle size on binding to albumin” value is on record as “no significant change in particle size”. Also, in data set [3] (Western blot, 10 mg/kg), the “c-Myc level in cancer tissue vs control” value is listed as “much lower levels”. The “c-Myc level in cancer tissue, example group vs comparison group” value in data set [3] (setting [9]) was “no significant difference”. Besides, in data set [3] (cancer tissue, FIG. 32), the “relative expression level of c-Myc, fold lower than control group” value was 2.2 times. Also, the “cancer size / increase in cancer size” value in data set [4] (10 mg/kg equiv. to ARV-771, 15 days) is on record as “significantly reduced”. In data set [4] (10 mg/kg equiv. to ARV-771, after 15 days, vs ARV-771 10 mg/kg), the “tumor volume, fold smaller than comparison group” value is 5.3 times. The “tumor volume, fold smaller than control group” value in data set [4] (10 mg/kg equiv. to ARV-771, after 15 days, vs saline) is reported as 6.1 times. Moreover, in data set [4] (10 mg/kg equiv. to ARV-771, tail vein, once every 3 days for 15 days), the “tumor volume after 15 days” value was found to be 176.13±81.62 mm3. For the same compound, in data set [4] (excised after 15 days (FIG. 26)), the “tumor size (optical image)” value is “much smaller tumor size than the other groups”. Also, in data set [5], the systemic side effects entry is reported as “did not show serious systemic side effects” and the weight loss result is reported as “no significant weight loss was observed”. Besides, the “elimination through the kidneys” value in data set [6] is given as “very low probability of kidney excretion”. Moreover, in data set [7], the “IC50 compared to native ARV-771” value is reported as “slight increase in IC50 compared to native ARV-771”. The IC50 in data set [7] (Mus musculus, 4T1, FIGS. 15A and 15B, read-out: IC50 against cancer cells) was found to be 7.78 µM. Moreover, the “interaction with thiol-blocked BSA” value in data set [8] was “did not form an interaction”.
